Some test systems named below: ACHN renal; HCC-2998 colon; HT29 colon; MALME-3M melanoma; MDA-MB-435; NCI-H23 lung; NCI/ADR-RES ovarian; OVCAR-8 ovarian; SK-MEL-2 melanoma; SK-MEL-28 melanoma.
Common to all, as to assay: DTP human tumour cell line panel, 48 h

Seven compounds from PubChem BioAssay (NCI) can be followed below.

Where “and” joins values, the source holds several entries; their conditions need not be identical. Equal entries are not always repeated.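 Exposure lasted 48 hours, with cells grown in 96-well plates and compounds tested at five concentrations. Abbreviation: GI50, concentration required for 50% inhibition of growth. TGI: total growth inhibition.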

The TGI is the concentration at which net growth stops. On to `O=C(O)c1cc(N=Nc2ccc([N+](=O)[O-])cc2)ccc1O`, for which the TGI in the test with ACHN renal was more than 100 µM; with HCC-2998 colon it was 44.7 µM; in the test on HT29 colon, more than 100 µM; with MALME-3M melanoma, more than 100 µM; with MDA-MB-435, more than 100 µM; in the test with NCI-H23 lung it was more than 100 µM. The total growth inhibition concentration (TGI) in the test with NCI/ADR-RES ovarian is more than 100 µM; in the test with OVCAR-8 ovarian, more than 100 µM; in the test with SK-MEL-2 melanoma it was 78.8 µM; in the test with SK-MEL-28 melanoma, more than 100 µM.

Take `O=C(Nc1ccccc1)c1cc2ccccc2c(N=Nc2cccc([N+](=O)[O-])c2)c1O`: the TGI in the test on ACHN renal, in the test on HCC-2998 colon, in the test on HT29 colon, in the test on MALME-3M melanoma, with MDA-MB-435 and in the test on NCI-H23 lung was more than 100 µM each time. For the same compound, the TGI in the test with NCI/ADR-RES ovarian, with OVCAR-8 ovarian, in the test on SK-MEL-2 melanoma and in the test with SK-MEL-28 melanoma was more than 100 µM throughout.

For the compound `Cc1ccc(Nc2c3c(c(C#N)c4nc5ccccc5n24)CCCC3)cc1`, the TGI with ACHN renal is more than 100 µM; in the test with HCC-2998 colon it was 94.9 µM; in the test with HT29 colon, 37.2 µM; in the test with MALME-3M melanoma it was 77.9 µM; in the test with MDA-MB-435, 45.8 µM; in the test on NCI-H23 lung it was more than 100 µM. The total growth inhibition concentration (TGI) was 61.9 µM in the test on NCI/ADR-RES ovarian, more than 100 µM in the test with OVCAR-8 ovarian, 31.7 µM with SK-MEL-2 melanoma and 55.6 µM in the test with SK-MEL-28 melanoma.

For `C=CCn1c(-c2cc(C(C)(C)C)c(O)c(C(C)(C)C)c2)cs/c1=N\C(P(=O)(O)O)P(=O)(O)O`, the concentration for total growth inhibition (TGI) in the test with ACHN renal, with HCC-2998 colon, in the test with HT29 colon, with MALME-3M melanoma, in the test on MDA-MB-435 and in the test on NCI-H23 lung was more than 100 µM in each case. For the same compound, the concentration for total growth inhibition (TGI) in the test on NCI/ADR-RES ovarian, in the test with OVCAR-8 ovarian, in the test with SK-MEL-2 melanoma and in the test with SK-MEL-28 melanoma was more than 100 µM throughout.

As a reminder, the GI50 is the concentration at which growth is held to half of that of the control. Regarding `C1=N[C@]23C(=N[C@H](N=C2NCc2ccco2)[C@]24N=CNC2=N[C@H]3N=C4NCc2ccco2)N1`, the GI50 in the test with ACHN renal, in the test on HCC-2998 colon, in the test on HT29 colon, in the test on MALME-3M melanoma, in the test on MDA-MB-435 and in the test on NCI-H23 lung was more than 100 µM each time. The GI50 in the test with NCI/ADR-RES ovarian, in the test with OVCAR-8 ovarian, in the test with SK-MEL-2 melanoma and in the test on SK-MEL-28 melanoma was more than 100 µM each time. Besides, the TGI in the test on ACHN renal, in the test on HCC-2998 colon, with HT29 colon, with MALME-3M melanoma, in the test on MDA-MB-435 and in the test on NCI-H23 lung was more than 100 µM each time. Also, the TGI with NCI/ADR-RES ovarian, in the test with OVCAR-8 ovarian, in the test on SK-MEL-2 melanoma and in the test on SK-MEL-28 melanoma was more than 100 µM each time.

For `CCOC(=O)COc1cc(-c2ccccc2F)nc2cc3c(cc12)OCO3`, the total growth inhibition concentration (TGI) in the test on ACHN renal, with HCC-2998 colon, with HT29 colon, in the test with MALME-3M melanoma, with MDA-MB-435 and in the test on NCI-H23 lung was more than 100 µM each time. In addition, the total growth inhibition concentration (TGI) in the test on NCI/ADR-RES ovarian, with OVCAR-8 ovarian, in the test on SK-MEL-2 melanoma and in the test with SK-MEL-28 melanoma was more than 100 µM in each case.

Regarding `CCN(CC)CCNc1c2ccccc2nc2cccc([N+](=O)[O-])c12`, the total growth inhibition concentration (TGI) is 0.0184 µM and 0.0468 µM in the test on ACHN renal; 0.0315 µM and 0.0156 µM with HCC-2998 colon; 0.0408 µM and 0.0455 µM in the test on HT29 colon; 0.0231 µM and 0.0287 µM with MALME-3M melanoma; 0.00323 µM in the test with MDA-MB-435; 0.0188 µM in the test with NCI-H23 lung. In addition, the TGI was 0.034 µM in the test on NCI/ADR-RES ovarian; 0.0382 µM with OVCAR-8 ovarian; 0.0185 µM and 0.023 µM in the test with SK-MEL-2 melanoma; 0.0566 µM and 0.152 µM in the test with SK-MEL-28 melanoma. Besides, the results for the GI50 in the test with MALME-3M melanoma and with SK-MEL-2 melanoma were 0.013 µM and 0.0102 µM, respectively.
